Test results: patent publication US8445448B2, “FVIII peptides and their use in tolerising haemophiliacs” (Apitope International NV, priority 2007, dated 2013)

Tests used:
[1] = tested on: lymph node cells from FVIII-DR2+ mice; assay: Recall responses of lymph node cells from FVIII-DR2+ mice primed with rhFVIII/CFA to the peptide panel; type: cell-based; settings: FVIII-DR2+ animals immunised with factor VIII in adjuvant; FIG. 3
Description: HLA-DR2 transgenic mice were crossed with factor VIII deficient mice to create a model of haemophilia expressing the human HLA class II MHC molecule.
These FVIII-DR2+ animals were immunised with factor VIII in adjuvant. Draining lymph nodes were isolated and tested for their response to the peptide panel.
The same method was followed as for (i), except the mice were FVIII-deficient, HLA-DR2+ and murine MHC class II null.

T-cell hybridomas [2] = assay: FVIII peptide specificity of T cell hybridomas generated from FVIII-/- HLA-DR2+ mice (IL-2 production); type: cell-based; settings: of 19 hybridomas specific for factor VIII; factor VIII deficient HLA-DR2 mice
Description: Factor VIII deficient mice expressing HLA-DR2 were immunised with factor VIII in adjuvant. Spleen cells from the immunised mice were restimulated in vitro with factor VIII and the resulting lymphoblasts were fused with BW5147, as described above. T-cell hybridomas were screened for their response to the 12 predicted peptides. Yet again, the majority of hybridomas responded to peptides DNIMV (SEQ ID NO:72) and PRCLT (SEQ ID NO:70). Of 19 hybridomas specific for factor VIII, 10 responded to DNIMV (SEQ ID NO:72), 6 to PRCLT (SEQ ID NO:70), 1 to PPIIA (SEQ ID NO:65), 1 to SLYIS (SEQ ID NO:64) and 1 to DTLLI (SEQ ID NO:69).
(§1) HLA-DR2+ murine MHC class II null mice were immunised as above. On day 10 draining lymph nodes were removed and lymphocytes cultured at 2.5×10^6 cells/ml, 1 ml/well in 24 well plates in the presence of 20 μg/ml rhFVIII for 3 days. Following this stimulation, lymphocytes were recovered, washed and fused with TCRα^−β^− BW fusion partner cells at a ratio of 4 BW cells to 1 lymphocyte, using polyethylene glycol as described by Nelson et al (1980) PNAS 77(5):2866. Fused cells were carefully washed and then plated out in flat bottomed 96 well plates for 2 days before the addition of HAT medium to select for T cell hybridomas. Cells were monitored for growth and approximately 10 days after fusions were performed, individual clones were selected and transferred to 24 well plates in HAT medium. Clones were maintained in HAT medium for at least 2 weeks before being weaned into HT medium and then complete medium. Clones were tested for antigenic specificity by culturing 100 μl of hybridoma cells with 5×10^4 Mgar cells in the presence and absence of 20 μg/ml rhFVIII overnight. Supernatants were then collected and assessed for IL-2 production by ELISA, with clones producing IL-2 in response to rhFVIII being considered positive for FVIII-specificity. To investigate the repertoire of predicted FVIII peptides FVIII-specific clones were again tested for IL-2 production, following overnight incubation with 20 μg/ml of each of the 12 peptides.
The same method was followed as for (ii), except the mice were FVIII-deficient and HLA-DR2+.

[3] = tested on: HLA-DR2 restricted cells from factor VIII immunised mice; assay: Recall responses (proliferation) of lymph node cells from FVIII+DR2+ mice primed with rhFVIII/CFA to FVIII peptides; type: cell-based; settings: FVIII+DR2+ mice immunised with human factor VIII in adjuvant; LNC restimulated in vitro with peptide; FIG. 1
T-cell hybridomas [4] = assay: FVIII peptide specificity of T cell hybridomas generated from DR2+ mice (IL-2 production); type: cell-based; settings: for Number of hybridomas responding to peptide: of the 27 hybridomas screened, HLA-DR2 mice, 20 μg/ml peptide, IL-2
Description: HLA-DR2 mice were first immunised with factor VIII in adjuvant. Spleen cells from immune mice were restimulated in vitro with factor VIII and the resulting lymphoblasts were fused with the BW5147 thymoma using polyethylene glycol.
T-cell hybridomas were selected in HAT medium and the hybridomas cloned and tested for their response to factor VIII. The hybridomas were then screened for their response to the 12 predicted peptides.
as §1

[5] = tested on: fixed Mgar cells / FVIII-/- T cell hybridoma clones; assay: Presentation by fresh or fixed Mgar cells to hybridoma clones (antigen processing-independent presentation, IL-2 ELISA); type: cell-based; settings: 20 μg/ml, overnight, Mgar cells fresh or fixed with 1% paraformaldehyde, IL-2 by ELISA; FIG. 5
Method: In order to be an antigen processing-independent epitope, a peptide must be capable of binding to an MHC class I or II molecule without further antigen processing (i.e. trimming) and be presented to a T cell. In the present case, the capacity of peptides to be presented by fixed APC was investigated.
Mgar cells were either fresh or fixed with 1% paraformaldehyde. Clones were tested for antigenic specificity by culturing 100 μl of hybridoma cells with 5×10^4 Mgar cells in the presence and absence of 20 μg/ml rhFVIII or peptide epitopes overnight. Supernatants were then collected and assessed for IL-2 production by ELISA.

HLA-DR2 transgenic mice = assay: Tolerisation of FVIII-specific responses in DR2+ mice by pre-treatment with peptide; type: in vivo; settings: 3x i.p. 100 μg peptide prior to priming with rhFVIII/CFA, vs PBS, FIG. 6
Method: HLA-DR2 transgenic mice were treated with either of the two soluble peptides, or PBS as a control, prior to immunisation with factor VIII in adjuvant. Draining lymph nodes were isolated and the cells restimulated in vitro with factor VIII protein in order to assess the immune status of the mice.
HLA-DR2+ murine MHC class II null mice were treated 3 times with 100 μg of DNIMV (SEQ ID NO:72), PRCLT (SEQ ID NO:70) or PPIIA (SEQ ID NO:65) dissolved in PBS, or the equivalent volume of PBS alone. Peptides were administered intraperitoneally, with 3-4 days between each dose. Following the final administration, mice were primed with rhFVIII emulsified in complete Freunds adjuvant as for (i). 10 days later, draining lymph nodes were recovered and lymphocytes subsequently cultured in vitro with rhFVIII, or each of the tolerising peptides as well as control antigens, for 72 hours before the addition of tritiated thymidine as for (i).

Sequence	Response of lymph node cells to peptide [1]	Number of hybridomas responding to peptide (T-cell hybridomas [2])	Response of lymph node cells to peptide (LNC proliferation) [3]	Quality of hybridoma response to peptide (T-cell hybridomas [4]; HLA-DR2 mice hybridomas)	Number of hybridomas responding to peptide (T-cell hybridomas [4])	Presentation by live and fixed Mgar cells [5]	Immune response to factor VIII after peptide pre-treatment (LNC recall response) (HLA-DR2 transgenic mice)
RYLRIHPQSWVHQIA [FVIII first AA 2322]	significant response						
SLYISQFIIMYSLDG [FVIII first AA 2114]		1					
DTLLIIFKNQASRPY		1					
PPIIARYIRLHPTHY [FVIII first AA 2161]		1	responses	weaker and less specific	3		
PRCLTRYYSSFVNME	responded well	6	responses		3	presented by both live and fixed Mgar cells	substantial suppression of the immune response to factor VIII
GTLMVFFGNVDSSGI [FVIII first AA 2140]	weak response						
DNIMVTFRNQASRPY	responded well	10	respond strongly		11	presented by both live and fixed Mgar cells	substantial suppression of the immune response to factor VIII
